Test results: patent US12049450B2, “Pyridyloxy-carboxylate derivative and preparation method therefor, herbicidal composition, and use” (Qingdao Kingagroot Chemical Compound Co., Ltd., priority 2018, dated 2024)

Columns and labels:
Assay type in all cases: in vivo
Abutilon theophrasti = assay: Post-emergence test experiment (greenhouse pot, spray at 2-3 leaf stage); settings: 1000 g/ha; post-emergence spray at 2-3 leaf stage; assessed after 3 weeks; fresh weight inhibition rate
Method in brief: (§1)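 Weed seeds sown in soil-filled pots in greenhouse, sprayed at 2-3 leaf stage (2 weeks after sowing) with compound in acetone/tween-80 plus methyl oleate emulsible concentrate (1.5 L/ha) diluted in water. Fresh-weight growth inhibition scored after 3 weeks on 0-5 scale (5: >85%, 0: <5%).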

Cyperus iria = assay: as above; settings: post-emergence, 600 g/ha, after 3 weeks; from Hunan, resistant to ALS inhibitor herbicides
Method in brief: as §1

Digitaria sanguinalis = assay: as above; settings: 1000 g/ha; post-emergence spray at 2-3 leaf stage; assessed after 3 weeks; fresh weight inhibition rate
Method in brief: as §1

Echinochloa crusgalli = assay: as above; settings: for Activity level (growth inhibition rate) Echinochloa crusgalli: 1000 g/ha, post-emergence spray at 2-3 leaf stage, assessed after 3 weeks, fresh weight inhibition rate; for Echinochloa crusgalli, activity level (growth inhibition rate): post-emergence, 600 g/ha, after 3 weeks, from Hunan, resistant to ALS inhibitor herbicides
Method in brief: as §1

Galium spurium = assay: as above; settings: 1000 g/ha; post-emergence spray at 2-3 leaf stage; assessed after 3 weeks; fresh weight inhibition rate
Method in brief: as §1

Indica rice = assay: as above; settings: post-emergence, 600 g/ha, after 3 weeks
Method in brief: (§2)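 Activity graded levels 0-5 by fresh-weight inhibition (level 5 above 85%, level 0 below 5%), assessed 3 weeks after treatment. Plants grown in greenhouse pots were sprayed post-emergence at 2-3 leaves using acetone/tween-80 solutions with methyl oleate synergist (1.5 L/ha).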

Japonica rice = assay: as above; settings: post-emergence, 600 g/ha, after 3 weeks
Method in brief: as §2

Monochoria vaginalis [1] = assay: as above; settings: 1000 g/ha; post-emergence spray at 2-3 leaf stage; assessed after 3 weeks; fresh weight inhibition rate
Method in brief: as §1

rice (japonica rice) = assay: Transplanted rice safety evaluation in rice field soil pot; settings: 1000 g/ha, 21 days after treatment
Description: (§3) The activity level standard of harmful plants destruction (i. e. growth inhibition rate) is as follows: • Level 5: the growth inhibition rate is greater than 85%; • Level 4: the growth inhibition rate is equal to or greater than 60% and less than 85%; • Level 3: the growth inhibition rate is equal to or greater than 40% and less than 60%; • Level 2: the growth inhibition rate is equal to or greater than 20% and less than 40%; • Level 1: the growth inhibition rate is equal to or greater than 5% and less than 20%; • Level 0: the growth inhibition rate is less than 5%;
(§4) Transplanted rice safety evaluation and weed control effect evaluation in rice field:
In addition, the rice field soil that loaded into the 1/1,000,000 ha pot was leveled to keep water storage at 3-4 cm depth. The 3-leaf stage rice (japonica rice) was transplanted at 3 cm of transplanting depth the next day. The compound of the present invention was treated by the same way after 5 days of transplantation.
(§5) The fertility condition of Monochoria vaginalis 14 days and rice 21 days after the treatment of the compound of the invention with the naked eye.

Monochoria vaginalis [2] = assay: Weed control effect evaluation in rice field soil pot; settings: paddy pot, 1000 g/ha, 14 days after treatment; resistant to pyrazosulfuron-ethyl and penoxsulam
Description: as §3, §4
Rice field soil was loaded into a 1/1,000,000 ha pot. The seeds of Monochoria vaginalis were sowed and gently covered with soil, then left to stand still in greenhouse in the state of 0.5-1 cm of water storage. It was kept at 3-4 cm of water storage thereafter. The weeds were treated by dripping the WP or SC water diluents prepared according to the common preparation method of the compounds of the present invention with pipette homogeneously to achieve specified effective amount when Monochoria vaginalis reached 0.5 leaf stage.
as §5

Row | Compound | Activity level (growth inhibition rate) Abutilon theophrasti (Abutilon theophrasti) | Cyperus iria, activity level (growth inhibition rate) (Cyperus iria) | Activity level (growth inhibition rate) Digitaria sanguinalis (Digitaria sanguinalis) | Activity level (growth inhibition rate) Echinochloa crusgalli (Echinochloa crusgalli) | Echinochloa crusgalli, activity level (growth inhibition rate) (Echinochloa crusgalli) | Activity level (growth inhibition rate) Galium spurium (Galium spurium) | Indica rice, activity level (growth inhibition rate) (Indica rice) | Japonica rice, activity level (growth inhibition rate) (Japonica rice) | Activity level (growth inhibition rate) Monochoria Vaginalis (Monochoria vaginalis [1]) | Rice, safety level (rice (japonica rice)) | Monochoria Vaginalis, activity level (Monochoria vaginalis [2])
1 | CC(Oc1nc(F)c(Cl)c(N)c1Cl)C(=O)SCc1cc(C2CC2)nn1C (stereo not shown) [Compound 128] | 5 (Level 5: the growth inhibition rate is greater than 85%) | 5 (Level 5: the growth inhibition rate is greater than 85%) | 5 (Level 5: the growth inhibition rate is greater than 85%) | 5 (Level 5: the growth inhibition rate is greater than 85%) | 5 (Level 5: the growth inhibition rate is greater than 85%) | 5 (Level 5: the growth inhibition rate is greater than 85%) | 0 (Level 0: the growth inhibition rate is less than 5%) | 0 (Level 0: the growth inhibition rate is less than 5%) | 5 (Level 5: the growth inhibition rate is greater than 85%) | 0 (Level 0: the growth inhibition rate is less than 5%) | 5 (Level 5: the growth inhibition rate is greater than 85%)
2 | COc1c(Cl)ccc(COC(=O)C(C)Oc2nc(F)c(Cl)c(N)c2Cl)c1F (stereo not shown) [Compound 85] | 5 (Level 5: the growth inhibition rate is greater than 85%) | 5 (Level 5: the growth inhibition rate is greater than 85%) | 5 (Level 5: the growth inhibition rate is greater than 85%) | 5 (Level 5: the growth inhibition rate is greater than 85%) | 5 (Level 5: the growth inhibition rate is greater than 85%) | 5 (Level 5: the growth inhibition rate is greater than 85%) | 0 (Level 0: the growth inhibition rate is less than 5%) | 0 (Level 0: the growth inhibition rate is less than 5%) | 5 (Level 5: the growth inhibition rate is greater than 85%) | 0 (Level 0: the growth inhibition rate is less than 5%) | 5 (Level 5: the growth inhibition rate is greater than 85%)
3 | CC(Oc1nc(F)c(Cl)c(N)c1Cl)C(=O)OCc1ccccc1F (stereo not shown) [Compound 75] | 5 (Level 5: the growth inhibition rate is greater than 85%) | 5 (Level 5: the growth inhibition rate is greater than 85%) | 5 (Level 5: the growth inhibition rate is greater than 85%) | 5 (Level 5: the growth inhibition rate is greater than 85%) | 5 (Level 5: the growth inhibition rate is greater than 85%) | 5 (Level 5: the growth inhibition rate is greater than 85%) | 0 (Level 0: the growth inhibition rate is less than 5%) | 0 (Level 0: the growth inhibition rate is less than 5%) | 5 (Level 5: the growth inhibition rate is greater than 85%) | 0 (Level 0: the growth inhibition rate is less than 5%) | 5 (Level 5: the growth inhibition rate is greater than 85%)
4 | CC(Oc1nc(F)c(Cl)c(N)c1Cl)C(=O)SCc1ccccc1 (stereo not shown) [Compound 67] | 5 (Level 5: the growth inhibition rate is greater than 85%) | 5 (Level 5: the growth inhibition rate is greater than 85%) | 5 (Level 5: the growth inhibition rate is greater than 85%) | 5 (Level 5: the growth inhibition rate is greater than 85%) | 5 (Level 5: the growth inhibition rate is greater than 85%) | 5 (Level 5: the growth inhibition rate is greater than 85%) | 0 (Level 0: the growth inhibition rate is less than 5%) | 0 (Level 0: the growth inhibition rate is less than 5%) | 5 (Level 5: the growth inhibition rate is greater than 85%) | 0 (Level 0: the growth inhibition rate is less than 5%) | 5 (Level 5: the growth inhibition rate is greater than 85%)
5 | Cc1c(F)nc(OC(C)C(=O)OCc2ccccc2)c(C)c1N (stereo not shown) [Compound 7] | 5 (Level 5: the growth inhibition rate is greater than 85%) | 5 (Level 5: the growth inhibition rate is greater than 85%) | 5 (Level 5: the growth inhibition rate is greater than 85%) | 5 (Level 5: the growth inhibition rate is greater than 85%) | 5 (Level 5: the growth inhibition rate is greater than 85%) | 5 (Level 5: the growth inhibition rate is greater than 85%) | 0 (Level 0: the growth inhibition rate is less than 5%) | 0 (Level 0: the growth inhibition rate is less than 5%) | 5 (Level 5: the growth inhibition rate is greater than 85%) | 0 (Level 0: the growth inhibition rate is less than 5%) | 5 (Level 5: the growth inhibition rate is greater than 85%)
